# Literature values, collected in patent US8951728B2, “Template directed split and mix synthesis of small molecule libraries” (ChemGene Holding ApS, priority 2004, dated 2015).
# Target: alphaV/beta3 integrin receptor (Homo sapiens, UniProt P05106+P06756)
# Sequence (P06756 31-889 limits assumed): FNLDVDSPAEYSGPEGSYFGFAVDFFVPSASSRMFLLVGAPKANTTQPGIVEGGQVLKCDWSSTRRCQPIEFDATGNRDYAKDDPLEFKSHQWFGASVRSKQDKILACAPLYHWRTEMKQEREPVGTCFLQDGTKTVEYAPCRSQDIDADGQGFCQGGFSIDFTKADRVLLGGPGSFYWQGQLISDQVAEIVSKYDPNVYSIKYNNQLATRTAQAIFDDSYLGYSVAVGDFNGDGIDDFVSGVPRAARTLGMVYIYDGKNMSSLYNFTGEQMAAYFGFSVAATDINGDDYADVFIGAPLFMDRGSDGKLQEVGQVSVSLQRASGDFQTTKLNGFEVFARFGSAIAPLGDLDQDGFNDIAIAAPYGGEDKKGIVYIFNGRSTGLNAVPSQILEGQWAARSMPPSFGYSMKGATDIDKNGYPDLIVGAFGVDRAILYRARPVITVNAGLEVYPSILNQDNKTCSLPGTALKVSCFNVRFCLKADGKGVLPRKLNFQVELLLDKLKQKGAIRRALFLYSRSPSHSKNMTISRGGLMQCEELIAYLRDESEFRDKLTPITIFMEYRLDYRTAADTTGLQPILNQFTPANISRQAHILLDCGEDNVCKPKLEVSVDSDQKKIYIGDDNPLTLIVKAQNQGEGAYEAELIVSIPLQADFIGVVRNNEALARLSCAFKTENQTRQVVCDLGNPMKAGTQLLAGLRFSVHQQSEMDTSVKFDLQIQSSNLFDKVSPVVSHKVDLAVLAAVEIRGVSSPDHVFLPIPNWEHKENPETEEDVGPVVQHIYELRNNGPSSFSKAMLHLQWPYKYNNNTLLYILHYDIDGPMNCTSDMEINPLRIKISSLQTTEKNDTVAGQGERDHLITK
# Sequence (P06756 891-1048 limits assumed): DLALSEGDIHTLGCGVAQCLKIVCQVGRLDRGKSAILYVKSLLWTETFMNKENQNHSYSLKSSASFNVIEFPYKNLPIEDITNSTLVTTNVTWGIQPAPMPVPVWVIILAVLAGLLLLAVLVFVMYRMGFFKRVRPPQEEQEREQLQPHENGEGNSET
# Sequence (P05106 27-788): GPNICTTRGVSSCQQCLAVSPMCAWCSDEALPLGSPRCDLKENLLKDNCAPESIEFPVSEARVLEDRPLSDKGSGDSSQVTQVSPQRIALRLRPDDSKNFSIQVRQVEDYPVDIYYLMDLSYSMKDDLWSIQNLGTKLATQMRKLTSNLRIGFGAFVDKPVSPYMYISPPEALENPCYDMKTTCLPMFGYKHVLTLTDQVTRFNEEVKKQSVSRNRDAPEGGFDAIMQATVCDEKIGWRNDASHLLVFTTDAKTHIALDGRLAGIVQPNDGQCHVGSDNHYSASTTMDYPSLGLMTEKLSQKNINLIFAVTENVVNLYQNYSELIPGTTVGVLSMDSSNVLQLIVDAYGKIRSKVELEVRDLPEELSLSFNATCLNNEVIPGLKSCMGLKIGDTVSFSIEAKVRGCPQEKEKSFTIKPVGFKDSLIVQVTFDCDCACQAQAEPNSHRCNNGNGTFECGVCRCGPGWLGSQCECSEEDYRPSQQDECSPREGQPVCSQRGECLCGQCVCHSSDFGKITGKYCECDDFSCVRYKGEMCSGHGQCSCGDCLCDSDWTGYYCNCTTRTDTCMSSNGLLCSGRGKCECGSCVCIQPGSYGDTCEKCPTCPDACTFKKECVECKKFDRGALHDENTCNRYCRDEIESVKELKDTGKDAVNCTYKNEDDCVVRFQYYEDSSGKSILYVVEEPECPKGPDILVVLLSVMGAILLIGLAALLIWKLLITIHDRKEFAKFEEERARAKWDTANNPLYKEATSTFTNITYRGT
compound,measurement,setting,value
O=C(O)CC(NC(=O)CNC(=O)CCCc1ccc2c(n1)NCCC2)C(=O)O (centres unmarked) [Feuston 5],affinity compared to the RGD-tripeptide,,ten-fold increased affinity
same,Kd,"Feuston et al., J Med. Chem. 2002",111 nM
